Measurements from ChEMBL document CHEMBL5055686, “Discovery of AL-GDa62 as a Potential Synthetic Lethal Lead for the Treatment of Gastric Cancer” (J Med Chem, 2021).
The source made the active and inactive calls. No cut-off for these calls is given here.

What was measured:
[1] = system: NCI-N87; experiment: Antitumor activity against human wild type NCI-N87 cells assessed as cell numbers measured after 48 hrs; type: functional, cell-based; conditions: NCI-N87, 48 h
[2] = system: MCF-10A; experiment: Antitumor activity against human spontaneously immortalized wild type MCF-10A cells assessed as cell numbers measured after 48 hrs; type: functional, cell-based; conditions: Homo sapiens, MCF-10A, 48 h; read-out: EC50
[3] = system: NCI-N87; experiment: Antitumor activity against human CDH-/- NCI-N87cells assessed as cell numbers measured after 48 hrs; type: functional, cell-based; conditions: NCI-N87, 48 h
[4] = target: Actin-related protein 2/3 complex subunit 5 (Homo sapiens) (UniProt O15511); experiment: Binding affinity to ARPC5 in human spontaneously immortalized CDH-/- MCF10A cell lysates assessed as change in melting temperature at 3.125 uM for 3 hrs by thermal proteome profiling assay; conditions: MCF-10A
[5] = Ratio of EC50 for antitumor activity against human spontaneously immortalized wild type MCF10A cells assessed as cell numbers measured after 48 hrs to antitumor activity against human spontaneously immortalized CDH-/- MCF10A cells assessed as cell numbers measured after 48 hrs; type: functional, MCF-10A
[6] = Anticancer activity against mouse gastric organoids assessed as reduction in growth by measuring TdTom CdhI-/- at 1.56 uM incubated for 48 hrs; type: functional, Gastric gland; parameters: scale not given: the % may be the effect or the level left
[7] = system: MCF-10A; experiment: Binding affinity to TCOF1 in human spontaneously immortalized CDH-/- MCF10A cell lysates assessed as change in melting temperature at 3.125 uM for 3 hrs by thermal proteome profiling assay
[8] = system: MCF-10A; experiment: Antitumor activity against human spontaneously immortalized CDH-/- MCF10A cells assessed as cell numbers at 3.13 uM measured after 48 hrs; type: functional
[9] = system: MCF-10A; experiment: Induction of apoptosis in human spontaneously immortalized wild type MCF10A cells assessed as apoptotic cells at 12.5 uM measured after 48 hrs by flow cytometry-based annexin-V-FITC/propidium iodide (PI) apoptosis assay; type: functional
[10] = system: MCF-10A; experiment: Induction apoptosis in human CDH-/- MCF10A cells assessed as early apoptotic cells at 6.25 uM measured after 48 hrs by flow cytometry-based annexin-V-FITC/propidium iodide (PI) apoptosis assay (reference value: 2.9%); type: functional
[11] = system: MCF-10A; experiment: Induction apoptosis in human spontaneously immortalized wild type MCF10A cells assessed as necrotic cells at 6.25 uM measured after 48 hrs by flow cytometry-based annexin-V-FITC/propidium iodide (PI) apoptosis assay; type: functional
[12] = system: MCF-10A; experiment: Induction apoptosis in human CDH-/- MCF10A cells assessed as late apoptotic cells at 6.25 uM measured after 48 hrs by flow cytometry-based annexin-V-FITC/propidium iodide (PI) apoptosis assay (reference value: 3.2%); type: functional
[13] = Ratio of EC50 for antitumor activity against human NCI-N87 cells assessed as cell numbers measured after 48 hrs to antitumor activity against human CDH-/- NCI-N87 cells assessed as cell numbers measured after 48 hrs; type: functional
[14] = system: MCF-10A; experiment: Induction apoptosis in human spontaneously immortalized wild type MCF10A cells assessed as late apoptotic cells at 6.25 uM measured after 48 hrs by flow cytometry-based annexin-V-FITC/propidium iodide (PI) apoptosis assay (reference value: 4.2%); type: functional
[15] = Anticancer activity against mouse mammary organoids assessed as reduction in growth by measuring TdTom CdhI-/- at 12.5 uM incubated for 48 hrs; type: functional, Mammary gland; parameters: scale not given: the % may be the effect or the level left
[16] = system: MCF-10A; experiment: Induction apoptosis in human spontaneously immortalized wild type MCF10A cells assessed as viable cells at 6.25 uM measured after 48 hrs by flow cytometry-based annexin-V-FITC/propidium iodide apoptosis assay (reference value: 94.4%); type: functional; conditions: read-out: Activity
[17] = system: MCF-10A; experiment: Induction apoptosis in human CDH-/- MCF10A cells assessed as viable cells at 6.25 uM measured after 48 hrs by flow cytometry-based annexin-V-FITC/propidium iodide (PI) apoptosis assay (reference value: 93.6%); type: functional; conditions: read-out: Activity
[18] = system: MCF-10A; experiment: Antitumor activity against human spontaneously immortalized CDH-/- MCF10A cells assessed as cell numbers measured after 48 hrs; type: functional, cell-based; conditions: Homo sapiens, MCF-10A, 48 h; read-out: EC50
[19] = system: MCF-10A; experiment: Induction apoptosis in human spontaneously immortalized wild type MCF10A cells assessed as early apoptotic cells at 6.25 uM measured after 48 hrs by flow cytometry-based annexin-V-FITC/propidium iodide (PI) apoptosis assay (reference value: 1.2%); type: functional
[20] = target: SUMO-conjugating enzyme UBC9 (Homo sapiens) (UniProt P63279); experiment: Binding affinity to SUMO-conjugating UBC9 in human spontaneously immortalized CDH-/- MCF10A cell lysates assessed as change in melting temperature at 3.125 uM for 3 hrs by thermal proteome profiling assay; conditions: MCF-10A
Sequence of SUMO-conjugating enzyme UBC9 (Homo sapiens) (P63279 whole entry): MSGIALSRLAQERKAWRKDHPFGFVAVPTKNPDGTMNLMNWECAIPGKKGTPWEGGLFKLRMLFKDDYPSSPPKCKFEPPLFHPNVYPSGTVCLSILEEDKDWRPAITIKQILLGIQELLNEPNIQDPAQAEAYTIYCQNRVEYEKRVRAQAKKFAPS

[21] = species on record: Homo sapiens; experiment: Inhibition of SUMOylation of GST-tagged RanGAP1 (unknown origin) protein using SUMO1 and UBC9 up to 3.13 uM by Western blotting analysis
[22] = system: MCF-10A; experiment: Induction of apoptosis in human spontaneously immortalized CDH-/- MCF10A cells assessed as apoptotic cells at 12.5 uM measured after 48 hrs by flow cytometry-based annexin-V-FITC/propidium iodide (PI) apoptosis assay; type: functional
[23] = system: MCF-10A; experiment: Induction apoptosis in human spontaneously immortalized wild type MCF10A cells assessed as necrotic cells at 3.25 uM measured after 48 hrs by flow cytometry-based annexin-V-FITC/propidium iodide (PI) apoptosis assay; type: functional

## Cc1cc(NCc2ccc(F)cc2)c2cc(OCCCN3CCCC3)ccc2n1
[1]
  EC50: 8.5 µM
[2]
  EC50: 3.2 µM
[3]
  EC50: 16.4 µM
[4]
  ΔTm: 3.72 °C
[5]
  Ratio EC50: 1.6
[6]
  Activity: 40%
[7]
  ΔTm: 8.32 °C
[8]
  inhibition at 3.13 µM: 70%
[9]
  Activity: >90%
[10]
  Activity: 24.7%
[11]
  Activity: 32%
[12]
  Activity: 48%
[13]
  Ratio EC50: 1.9
[14]
  Activity: 11.2%
[15]
  Activity: 21.3%
[16]
  viability at 6.25 µM: 64.9%
[17]
  viability at 6.25 µM: 26.7%
[18]
  EC50: 2 µM
[19]
  Activity: 23.5%
[20]
  ΔTm: 5.71 °C
[21]
  inhibition: Active
[22]
  Activity: >90%
[23]
  Activity: 5%
